From ChEMBL document CHEMBL4043217, “A prodrug design for improved oral absorption and reduced hepatic interaction” (Bioorg Med Chem, 2017)
pEC50, pIC50: −log10 of the molar value. The source made the active and inactive calls. No cut-off for these calls is given here.

Columns and labels:
Rattus norvegicus [1] = assay: Estrogenic effect in ovariectomized adult female Wistar rat assessed as uterine weight level at 10 ug, po dosed from day 1 to 3 and measured on day 4 relative to untreated control; assay type: functional
Carbonic anhydrase 2 = Carbonic anhydrase 2 (Homo sapiens, UniProt P00918)
Description: Inhibition of human CA2 catalytic activity pre-incubated for 15 mins followed by 4-NPA substrate addition and measured every 12 to 15 secs for 5 mins by spectrophotometry

Rattus norvegicus [2] = assay: Estrogenic effect in ovariectomized adult female Wistar rat assessed as uterine weight level at 1 ug, po dosed from day 1 to 3 and measured on day 4 relative to untreated control; assay type: functional
[3] = Prodrug conversion in human plasma assessed as esterase-mediated estradiol release by measuring saponification level after 10 mins by ELISA method; assay type: ADME; conditions: isolated protein
Rattus norvegicus [4] = assay: AUC (0 to 3 hrs) in rat at 3 mg, po; assay type: ADME; set-up: time < 3 hr, dose 3 mg, route oral; conditions: in vivo
Rattus norvegicus [5] = assay: Increase in testosterone level in orally dosed male rat serum relative to testosterone-propionate; assay type: functional, organism-based
[6] = Clearance in Sprague-Dawley rat blood at 1 mg/kg, iv; assay type: ADME, organism-based
[7] = Volume of distribution in Sprague-Dawley rat plasma at 1 mg/kg, iv; assay type: ADME, organism-based
[8] = Oral bioavailability life in Sprague-Dawley rat plasma at 5 mg/kg; assay type: ADME, organism-based
[9] = Volume of distribution in Sprague-Dawley rat blood at 1 mg/kg, iv; assay type: ADME, organism-based
[10] = Half life in Sprague-Dawley rat plasma at 5 mg/kg, po; assay type: ADME, organism-based
[11] = Half life in Sprague-Dawley rat blood at 5 mg/kg, po; assay type: ADME, organism-based
Estrogen receptor = molecular target: T1, Estrogen receptor (Homo sapiens, UniProt P03372); assay: Binding affinity to ER (unknown origin) expressed in UAS-bla GripTite 293 cells by Select screen competitive binding assay; assay type: cell-based
T1 sequence (P03372 whole entry): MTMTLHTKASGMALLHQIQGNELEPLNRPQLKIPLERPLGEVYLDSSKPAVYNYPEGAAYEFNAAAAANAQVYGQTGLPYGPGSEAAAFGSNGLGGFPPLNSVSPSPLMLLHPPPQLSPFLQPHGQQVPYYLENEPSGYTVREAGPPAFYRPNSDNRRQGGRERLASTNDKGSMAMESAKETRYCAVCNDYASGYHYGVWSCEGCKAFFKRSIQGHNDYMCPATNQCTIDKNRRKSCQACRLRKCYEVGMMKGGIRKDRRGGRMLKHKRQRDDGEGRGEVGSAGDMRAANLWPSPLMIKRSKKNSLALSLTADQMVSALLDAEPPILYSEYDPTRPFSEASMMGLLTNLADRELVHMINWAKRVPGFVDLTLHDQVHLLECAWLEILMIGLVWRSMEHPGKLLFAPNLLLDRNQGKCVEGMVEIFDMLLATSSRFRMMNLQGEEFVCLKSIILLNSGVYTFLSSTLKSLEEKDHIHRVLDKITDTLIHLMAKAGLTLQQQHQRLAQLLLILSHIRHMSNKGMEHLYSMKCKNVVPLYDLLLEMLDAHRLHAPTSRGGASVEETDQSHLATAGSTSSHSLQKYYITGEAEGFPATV

[12] = Clearance in Sprague-Dawley rat plasma at 1 mg/kg, iv; assay type: ADME, organism-based
[13] = Oral bioavailability life in Sprague-Dawley rat blood at 5 mg/kg; assay type: ADME, organism-based
Rattus norvegicus [14] = assay: Estrogenic effect in ovariectomized adult female Wistar rat assessed as uterine weight level at 3 ug, po dosed from day 1 to 3 and measured on day 4 relative to untreated control; assay type: functional

`C[C@]12CC[C@@H]3c4ccc(O)cc4CC[C@H]3[C@@H]1CC[C@@H]2OC(=O)[C@@H]1CCCN1C(=O)c1ccc(S(N)(=O)=O)o1` showed an Activity (Rattus norvegicus [1]) of 318% and a pIC50 (Carbonic anhydrase 2) of 6.60.

`CC(C)[C@H](NC(=O)c1ccc(S(N)(=O)=O)cc1)C(=O)O[C@H]1CC[C@H]2[C@@H]3CCc4cc(O)ccc4[C@H]3CC[C@]12C` showed an Activity (Rattus norvegicus [1]) of 267%, a pIC50 (Carbonic anhydrase 2) of 6.69 and an Activity (Rattus norvegicus [2]) of 105%. It also gave a Drug metabolism [3] of 89%.

For `CC(C)(NC(=O)c1ccc(S(N)(=O)=O)cc1)C(=O)O[C@H]1CC[C@H]2[C@@H]3CCc4cc(O)ccc4[C@H]3CC[C@]12C`, the Activity (Rattus norvegicus [1]) was 97%, the pIC50 (Carbonic anhydrase 2) was 6.63 and the Activity (Rattus norvegicus [2]) was 107%. For the same compound, the Drug metabolism [3] was 97%.

Compound `C[C@]12CC[C@@H]3c4ccc(O)cc4CC[C@H]3[C@@H]1CC[C@@H]2OC(=O)[C@H](Cc1ccccc1)NC(=O)c1ccc(S(N)(=O)=O)cc1` has an Activity (Rattus norvegicus [1]) of 117%, a pIC50 (Carbonic anhydrase 2) of 7.00 and an Activity (Rattus norvegicus [2]) of 95%. For the same compound, the Drug metabolism [3] was 75%.

Work on `Cc1cc(C(=O)N2CCC[C@H]2C(=O)O[C@H]2CC[C@H]3[C@@H]4CCc5cc(O)ccc5[C@H]4CC[C@]23C)ccc1S(N)(=O)=O` yielded an Activity (Rattus norvegicus [1]) of 258% and a pIC50 (Carbonic anhydrase 2) of 6.68.

Compound `C[C@]12CC[C@@H]3c4ccc(O)cc4CC[C@H]3[C@@H]1CC[C@@H]2OC(=O)[C@@H]1CCCN1C(=O)c1ccc(S(N)(=O)=O)cn1` has an Activity (Rattus norvegicus [1]) of 268% and a pIC50 (Carbonic anhydrase 2) of 5.30.

For `C[C@]12CC[C@H]3[C@@H](CCC4=CC(=O)CC[C@@]43C)[C@@H]1CC[C@@H]2OC(=O)[C@@H]1CCCN1C(=O)c1ccc(S(N)(=O)=O)cn1`, the AUC (Rattus norvegicus [4]) was 330 ng/mL and the Activity (Rattus norvegicus [5]) was “Active”.

Work on `C[C@]12CC[C@@H]3c4ccc(O)cc4CC[C@H]3[C@@H]1CC[C@@H]2OC(=O)[C@@H]1CCCN1C(=O)Cc1ccc(S(N)(=O)=O)cc1` yielded an Activity (Rattus norvegicus [1]) of 267% and a pIC50 (Carbonic anhydrase 2) of 6.30.

With `C[C@]12CC[C@@H]3c4ccc(O)cc4CC[C@H]3[C@@H]1CC[C@@H]2OC(=O)[C@@H]1CCCN1C(=O)c1coc(S(N)(=O)=O)c1` the Activity (Rattus norvegicus [1]) was 313% and the pIC50 (Carbonic anhydrase 2) was 8.15.

In the case of `C[C@]12CC[C@@H]3c4ccc(O)cc4CC[C@H]3[C@@H]1CC[C@@H]2OC(=O)[C@@H]1CCCN1C(=O)c1ccc(S(N)(=O)=O)cc1`, the clearance [6] was 3.86 mL/min/kg, the Vd [7] was 5.68 L/kg and the bioavailability [8] was 102%. The Vd [9] was 0.24 L/kg, the half-life [10] was 4.58 h and the half-life [11] was 4.9 h. The pEC50 (Estrogen receptor) was 6.36, the Activity (Rattus norvegicus [2]) was 244% and the clearance [12] was 62.8 mL/min/kg. The bioavailability [13] was 122%.

`C[C@]12CC[C@@H]3c4ccc(O)cc4CC[C@H]3[C@@H]1CC[C@@H]2OC(=O)[C@@H]1CCCN1c1ccc(S(N)(=O)=O)cc1` gave an Activity (Rattus norvegicus [1]) of 92% and a pIC50 (Carbonic anhydrase 2) of 6.70.

`C[C@H](NC(=O)c1ccc(S(N)(=O)=O)cc1)C(=O)O[C@H]1CC[C@H]2[C@@H]3CCc4cc(O)ccc4[C@H]3CC[C@]12C` gave a pIC50 (Carbonic anhydrase 2) of 6.60, a Drug metabolism [3] of 70% and an Activity (Rattus norvegicus [14]) of 163%.

Work on `C[C@]12CC[C@@H]3c4ccc(O)cc4CC[C@H]3[C@@H]1CC[C@@H]2OC(=O)[C@@H]1CCCN1C(=O)c1ccc(S(N)(=O)=O)nc1` yielded an Activity (Rattus norvegicus [1]) of 259% and a pIC50 (Carbonic anhydrase 2) of 6.60.

`C[C@]12CC[C@@H]3c4ccc(O)cc4CC[C@H]3[C@@H]1CC[C@@H]2OC(=O)[C@@H]1CCCN1C(=O)c1cccc(S(N)(=O)=O)c1` gave a pIC50 (Carbonic anhydrase 2) of 6.52.

For `C[C@]12CC[C@@H]3c4ccc(O)cc4CC[C@H]3[C@@H]1CC[C@@H]2OC(=O)[C@@H]1CCCN1C(=O)c1cccc(-c2cccc(S(N)(=O)=O)c2)c1`, the Activity (Rattus norvegicus [1]) was 216% and the pIC50 (Carbonic anhydrase 2) was 5.00.

With `C[C@]12CC[C@@H]3c4ccc(O)cc4CC[C@H]3[C@@H]1CC[C@@H]2OC(=O)[C@@H]1CCCN1C(=O)c1ccc(-c2ccc(S(N)(=O)=O)cc2)cc1` the Activity (Rattus norvegicus [1]) was 309% and the pIC50 (Carbonic anhydrase 2) was 6.54.

With `C[C@]12CC[C@@H]3c4ccc(O)cc4CC[C@H]3[C@@H]1CC[C@@H]2OC(=O)CNC(=O)c1ccc(S(N)(=O)=O)cc1` the pIC50 (Carbonic anhydrase 2) was 7.19 and the Drug metabolism [3] was 87%.

`C[C@@H](C(=O)O[C@H]1CC[C@H]2[C@@H]3CCc4cc(O)ccc4[C@H]3CC[C@]12C)N(C)C(=O)c1ccc(S(N)(=O)=O)cc1` gave an Activity (Rattus norvegicus [1]) of 289%, a pIC50 (Carbonic anhydrase 2) of 6.49 and an Activity (Rattus norvegicus [2]) of 145%. The Drug metabolism [3] was 84%.

For `C[C@]12CC[C@@H]3c4ccc(O)cc4CC[C@H]3[C@@H]1CC[C@@H]2OC(=O)[C@@H]1CCCN1C(=O)c1cccc(-c2ccc(S(N)(=O)=O)cc2)c1`, the Activity (Rattus norvegicus [1]) was 153% and the pIC50 (Carbonic anhydrase 2) was 6.92.

`C[C@]12CC[C@@H]3c4ccc(O)cc4CC[C@H]3[C@@H]1CC[C@@H]2OC(=O)[C@@H]1CCCN1Cc1ccc(S(N)(=O)=O)cc1` showed an Activity (Rattus norvegicus [1]) of 272% and a pIC50 (Carbonic anhydrase 2) of 6.89.

Work on `C[C@]12CC[C@@H]3c4ccc(O)cc4CC[C@H]3[C@@H]1CC[C@@H]2OC(=O)[C@@H]1CCCN1S(N)(=O)=O` yielded an Activity (Rattus norvegicus [1]) of 268% and a pIC50 (Carbonic anhydrase 2) of 5.00.
